# Experimental data published in ChEMBL document CHEMBL1914323, “Tricyclic aminopyrimidine histamine H4 receptor antagonists” (Bioorg Med Chem Lett, 2011).
# Activity calls are given as the source filed them. The calls are words filed in the database; no cut-off is given here.
# What was measured:
# Histamine H4 receptor [1] = biological target: T1, Histamine H4 receptor (Homo sapiens, UniProt Q9H3N8); assay: Displacement of [3H]histamine from recombinant human histamine H4 receptor
# Histamine H4 receptor [2] = biological target: T1, Histamine H4 receptor; assay: Antagonist activity at recombinant human histamine H4 receptor; format: functional; conditions: read-out: pA2 (converted)
# [3] = Solubility of the compound at pH 7; format: physicochemical; conditions: buffer
# [4] = Metabolic stability in human liver microsomes assessed as half life; format: ADME, Microsome
# [5] = Metabolic stability in rat liver microsomes assessed as half life; format: ADME, Microsome
# [6] = Metabolic stability in rat liver microsomes after 15 mins; format: ADME, Microsome; conditions: read-out: Stability
# [7] = Metabolic stability in human liver microsomes after 15 mins; format: ADME, Microsome; conditions: read-out: Stability
# [8] = Metabolic stability in dog liver microsomes assessed as half life; format: ADME, Canis lupus familiaris, Microsome
# [9] = Oral bioavailability in dog at 10 mg/kg; format: ADME, organism-based, Canis lupus familiaris; conditions: in vivo
# [10] = Oral bioavailability in rat at 10 mg/kg; format: ADME, organism-based; conditions: in vivo
# [11] = Apparent permeability from basolateral to apical side of human Caco2 cells; format: ADME, cell-based; conditions: Caco-2
# [12] = Solubility of the compound at pH 2; format: physicochemical; conditions: buffer
# [13] = Apparent permeability from apical to basolateral side of human Caco2 cells; format: ADME, cell-based; conditions: Caco-2
# [14] = biological target: T2, Voltage-gated inwardly rectifying potassium channel KCNH2 (Homo sapiens, UniProt Q12809); assay: Inhibition of human ERG by binding assay
# T2 sequence (Q12809 whole entry): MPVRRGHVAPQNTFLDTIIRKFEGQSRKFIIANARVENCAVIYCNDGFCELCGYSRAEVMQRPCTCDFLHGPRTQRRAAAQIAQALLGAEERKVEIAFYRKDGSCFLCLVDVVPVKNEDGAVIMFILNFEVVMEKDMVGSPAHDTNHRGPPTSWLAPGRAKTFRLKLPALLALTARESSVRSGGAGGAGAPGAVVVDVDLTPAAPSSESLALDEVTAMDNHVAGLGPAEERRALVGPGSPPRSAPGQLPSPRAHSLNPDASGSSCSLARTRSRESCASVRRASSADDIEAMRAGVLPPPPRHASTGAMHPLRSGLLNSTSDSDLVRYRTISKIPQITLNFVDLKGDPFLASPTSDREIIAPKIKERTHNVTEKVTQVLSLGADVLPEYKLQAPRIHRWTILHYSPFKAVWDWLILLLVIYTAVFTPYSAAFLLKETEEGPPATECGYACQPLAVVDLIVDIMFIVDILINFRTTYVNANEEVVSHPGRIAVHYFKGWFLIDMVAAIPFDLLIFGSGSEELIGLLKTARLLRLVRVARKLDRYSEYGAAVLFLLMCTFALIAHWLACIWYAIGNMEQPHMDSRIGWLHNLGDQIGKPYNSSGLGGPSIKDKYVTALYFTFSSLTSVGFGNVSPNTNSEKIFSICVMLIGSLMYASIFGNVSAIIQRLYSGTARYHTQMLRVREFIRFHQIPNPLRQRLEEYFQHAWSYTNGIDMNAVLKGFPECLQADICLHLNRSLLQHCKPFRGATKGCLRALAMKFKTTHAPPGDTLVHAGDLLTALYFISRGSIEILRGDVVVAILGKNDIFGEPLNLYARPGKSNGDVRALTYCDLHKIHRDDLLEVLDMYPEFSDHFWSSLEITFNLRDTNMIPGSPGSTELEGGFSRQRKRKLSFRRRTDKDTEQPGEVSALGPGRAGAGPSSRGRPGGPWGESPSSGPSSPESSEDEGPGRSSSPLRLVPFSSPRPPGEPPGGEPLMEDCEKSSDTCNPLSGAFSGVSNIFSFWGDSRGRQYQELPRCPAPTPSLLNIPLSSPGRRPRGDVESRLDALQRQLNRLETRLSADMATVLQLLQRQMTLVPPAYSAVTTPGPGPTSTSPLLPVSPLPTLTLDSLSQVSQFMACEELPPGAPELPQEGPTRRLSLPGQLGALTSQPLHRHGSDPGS
# [15] = Clearance in rat at 2 mg/kg, iv; format: ADME, organism-based; design: dose 2 mg/kg, route intravenous; conditions: in vivo
# [16] = Fraction unbound in human plasma; format: ADME, cell-free
# Mus musculus = assay: Antiinflammatory activity in BALB/c mouse asthma model assessed as inhibition of ovalbumin-induced eosinophil accumulation in lung lavage at 10 mg/kg, po BID 20 mins prior to each ovalbumin challenge for 4 times measured after 24 hrs by coulter counter assay; format: functional, organism-based; design: dose 10 mg/kg
# [17] = Volume of distribution at steady state in rat at 2 mg/kg, iv; format: ADME, organism-based; design: dose 2 mg/kg, route intravenous; conditions: in vivo, read-out: Vdss
# [18] = Half life in rat at 10 mg/kg, po; format: ADME, organism-based; design: dose 10 mg/kg, route oral; conditions: in vivo
# [19] = Cmax in rat at 10 mg/kg, po; format: ADME, organism-based; design: dose 10 mg/kg, route oral; conditions: in vivo
# [20] = Clearance in dog at 2 mg/kg, iv; format: ADME, organism-based, Canis lupus familiaris; design: dose 2 mg/kg, route intravenous; conditions: in vivo
# [21] = AUC in dog at 2 mg/kg, iv; format: ADME, organism-based, Canis lupus familiaris; design: dose 2 mg/kg, route intravenous; conditions: plasma
# [22] = AUC in rat at 2 mg/kg, iv; format: ADME, organism-based; design: dose 2 mg/kg, route intravenous; conditions: plasma
# [23] = Fraction unbound in mouse plasma; format: ADME, cell-free
# [24] = Volume of distribution at steady state in dog at 2 mg/kg, iv; format: ADME, organism-based, Canis lupus familiaris; design: dose 2 mg/kg, route intravenous; conditions: in vivo, read-out: Vdss
# [25] = Half life in dog at 10 mg/kg, po; format: ADME, organism-based, Canis lupus familiaris; design: dose 10 mg/kg, route oral; conditions: in vivo
# [26] = Cmax in dog at 10 mg/kg, po; format: ADME, organism-based, Canis lupus familiaris; design: dose 10 mg/kg, route oral; conditions: in vivo
# [27] = biological target: T2, Voltage-gated inwardly rectifying potassium channel KCNH2; assay: Inhibition of human ERG by patch clamp technique
# [28] = Half life in dog at 2 mg/kg, iv; format: ADME, organism-based, Canis lupus familiaris; design: dose 2 mg/kg, route intravenous; conditions: in vivo
# [29] = Half life in rat at 2 mg/kg, iv; format: ADME, organism-based; design: dose 2 mg/kg, route intravenous; conditions: in vivo
# T1 sequence (Q9H3N8 whole entry): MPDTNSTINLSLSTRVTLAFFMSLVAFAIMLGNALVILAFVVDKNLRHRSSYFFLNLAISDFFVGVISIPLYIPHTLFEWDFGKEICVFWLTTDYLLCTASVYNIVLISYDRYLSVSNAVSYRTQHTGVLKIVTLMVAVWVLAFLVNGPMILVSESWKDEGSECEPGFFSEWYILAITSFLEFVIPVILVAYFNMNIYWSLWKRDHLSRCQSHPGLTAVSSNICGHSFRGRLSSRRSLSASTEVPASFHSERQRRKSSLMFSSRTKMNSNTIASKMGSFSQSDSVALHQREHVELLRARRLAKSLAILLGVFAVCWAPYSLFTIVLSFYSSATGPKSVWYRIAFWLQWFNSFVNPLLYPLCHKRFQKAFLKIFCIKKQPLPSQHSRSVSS
compound,measurement,setting,value
CN[C@@H]1CCN(c2nc(N)nc3c2oc2cccc(Cl)c23)C1,Ki,Histamine H4 receptor [1],40 nM
Nc1nc(N2C[C@H]3C[C@@H]2CN3)c2oc3ccc(Cl)cc3c2n1,Ki,Histamine H4 receptor [1],104 nM
CN1CCN(c2ncnc3c2oc2ccc(Cl)cc23)CC1,Kb,Histamine H4 receptor [2],2.51 nM
same,solubility,[3],0.053 µM
same,half-life,[4],< 0.0833 h
same,Ki,Histamine H4 receptor [1],4.7 nM
same,half-life,[5],< 0.0833 h
CN[C@@H]1CCN(c2nc(N)nc3c2oc2ccc(OC)cc23)C1,Ki,Histamine H4 receptor [1],11 nM
C[C@H]1CN(c2nc(N)nc3c2oc2ncc(Cl)cc23)CCN1,Ki,Histamine H4 receptor [1],885 nM
Nc1nc(N2CCNCC2)c2oc3c(Cl)cc(Cl)cc3c2n1,Ki,Histamine H4 receptor [1],138 nM
CNC1CCN(c2ncnc3c2sc2ccccc23)CC1,Ki,Histamine H4 receptor [1],> 10000 nM
CN(C)C1CCN(c2ncnc3c2sc2ccccc23)CC1,Ki,Histamine H4 receptor [1],> 10000 nM
Cc1csc2c(N3CCCN(C)CC3)ncnc12,Ki,Histamine H4 receptor [1],> 10000 nM
CN1CCN(c2nc(N)nc3c2oc2ncc(Cl)cc23)CC1,Ki,Histamine H4 receptor [1],33 nM
CN(C)C1CCN(c2ncnc3c2sc2ccccc23)C1 (stereo not drawn),Ki,Histamine H4 receptor [1],> 10000 nM
CN[C@@H]1CCN(c2nc(N)nc3c2oc2ccc(Cl)cc23)C1,Ki,Histamine H4 receptor [1],0.4 nM
Nc1nc(N2C[C@@H]3C[C@H]2CN3)c2oc3ccccc3c2n1,Ki,Histamine H4 receptor [1],196 nM
CNC1CCN(c2nc(N)nc3c2oc2ccc(Cl)cc23)C1 (stereo not drawn),Kb,Histamine H4 receptor [2],10 nM
same,remaining at […],[6],100%
same,solubility,[3],0.054 µM
same,remaining at […],[7],100%
same,Ki,Histamine H4 receptor [1],0.9 nM
Cc1csc2c(N3CCN(C)CC3)ncnc12,Ki,Histamine H4 receptor [1],> 205 nM
CN[C@@H]1CCN(c2nc(N)nc3c2sc2cc(C(F)(F)F)ccc23)C1,Ki,Histamine H4 receptor [1],125 nM
CN[C@H]1CCN(c2nc(N)nc3c2sc2ccc(Cl)cc23)C1,Ki,Histamine H4 receptor [1],76 nM
CN1CCN(c2nc(N)nc3c2sc2cc(Cl)ccc23)CC1,Ki,Histamine H4 receptor [1],18 nM
CN[C@@H]1CCN(c2nc(N)nc3c2sc2ccc(F)cc23)C1,Ki,Histamine H4 receptor [1],31 nM
Nc1nc(N2CCNCC2)c2oc3ccc(Cl)c(Cl)c3c2n1,Ki,Histamine H4 receptor [1],7.7 nM
Nc1nc(N2CC3CCNC3C2)c2oc3ncc(Cl)cc3c2n1 (stereo not drawn),Ki,Histamine H4 receptor [1],139 nM
Nc1nc(N2CCC[C@H](N)C2)c2oc3ccc(C(F)(F)F)cc3c2n1,Ki,Histamine H4 receptor [1],42 nM
Nc1nc(N2CC[C@@H](N)C2)c2oc3ncc(Cl)cc3c2n1,Ki,Histamine H4 receptor [1],16 nM
Nc1nc(N2CCNCC2)c2oc3ncc(Cl)cc3c2n1,Ki,Histamine H4 receptor [1],35 nM
Nc1nc(N2C[C@@H]3C[C@H]2CN3)c2oc3ccc(Cl)cc3c2n1,Ki,Histamine H4 receptor [1],26 nM
CN[C@@H]1CCN(c2nc(N)nc3c2oc2ccc(Br)cc23)C1,Ki,Histamine H4 receptor [1],0.7 nM
CN1CCN(c2nc(N)nc3c2oc2ccc(Cl)c(Cl)c23)CC1,Ki,Histamine H4 receptor [1],7.7 nM
Nc1nc(N2C[C@@H]3C[C@H]2CN3)c2oc3ncc(Cl)cc3c2n1,Ki,Histamine H4 receptor [1],> 10000 nM
CN1CCN(c2nc(N)nc3c4cc(Cl)ccc4[s+]([O-])c23)CC1 (stereo not drawn),Ki,Histamine H4 receptor [1],1280 nM
CN[C@H]1CCN(c2nc(N)nc3c2oc2ccc(Cl)cc23)C1,Ki,Histamine H4 receptor [1],2 nM
CN[C@@H]1CCN(c2nc(N)nc3c2oc2ccc(F)cc23)C1,Ki,Histamine H4 receptor [1],2 nM
Nc1nc(N2C[C@@H]3C[C@H]2CN3)c2oc3cccc(Cl)c3c2n1,Ki,Histamine H4 receptor [1],443 nM
CN[C@@H]1CCN(c2nc(N)nc3c2oc2ncc(Cl)cc23)C1,Kb,Histamine H4 receptor [2],5.01 nM
same,half-life,[8],> 3 h
same,bioavailability,[9],91%
same,bioavailability,[10],91%
same,Papp B→A,[11],22 ×10⁻⁶ cm/s
same,solubility,[12],> 0.4 µM
same,Papp A→B,[13],23 ×10⁻⁶ cm/s
same,solubility,[3],> 0.4 µM
same,half-life,[4],> 3 h
same,IC50,[14],> 10000 nM
same,Ki,Histamine H4 receptor [1],9.4 nM
same,clearance,[15],68.3 mL/min/kg
same,fraction unbound,[16],0.43
same,inhibition,Mus musculus,Active
same,Vd,[17],6.9 L/kg
same,half-life,[5],> 1.02 h
same,half-life,[18],6.8 h
same,Cmax,[19],1200 nM
same,clearance,[20],21.7 mL/min/kg
same,AUC,[21],5.2 µM·h
same,AUC,[22],1.6 µM·h
same,fraction unbound,[23],0.18
same,Vd,[24],16.5 L/kg
same,half-life,[25],10.5 h
same,Cmax,[26],1800 nM
same,INH,[27],> 3 µM
same,half-life,[28],9.7 h
same,half-life,[29],1.2 h
CN1CCN(CCCOc2ccc(-c3nc4cc(Cl)ccc4[nH]3)cc2)CC1,Ki,Histamine H4 receptor [1],120 nM
CN1CCN(c2ncnc3c2oc2ccccc23)CC1,half-life,[4],< 0.0833 h
same,Ki,Histamine H4 receptor [1],56 nM
Nc1nc(N2CCNCC2)c2oc3cccc(Cl)c3c2n1,Ki,Histamine H4 receptor [1],1050 nM
NCC1CN(c2nc(N)nc3c2oc2ncc(Cl)cc23)C1,Ki,Histamine H4 receptor [1],376 nM
Nc1nc(N2CCNCC2)c2oc3cccc(F)c3c2n1,Ki,Histamine H4 receptor [1],145 nM
CN1CCN(c2nc(N)nc3c2oc2ccc(Cl)cc23)CC1,Kb,Histamine H4 receptor [2],2 nM
same,remaining at […],[6],0.3%
same,remaining at […],[7],84%
same,Ki,Histamine H4 receptor [1],0.1 nM
Nc1nc(N2C[C@@H]3CCCN[C@@H]3C2)c2oc3ccc(Cl)cc3c2n1,Ki,Histamine H4 receptor [1],21 nM
Nc1nc(N2CC(N)C2)c2oc3ncc(Cl)cc3c2n1,Ki,Histamine H4 receptor [1],613 nM
CN1CCN(c2nc(N)nc3c2oc2ccc(F)c(F)c23)CC1,Ki,Histamine H4 receptor [1],156 nM
Nc1nc(N2CCC[C@@H](N)C2)c2oc3ccc(Cl)cc3c2n1,Ki,Histamine H4 receptor [1],9.1 nM
Nc1nc(N2CCNCC2)c2oc3ccc(F)c(F)c3c2n1,Ki,Histamine H4 receptor [1],156 nM
CN1CCN(c2ncnc3c2sc2ccccc23)CC1,Ki,Histamine H4 receptor [1],53 nM
CN[C@@H]1CCN(c2nc(N)nc3c2oc2c(Cl)cc(Cl)cc23)C1,Ki,Histamine H4 receptor [1],8 nM
CN[C@@H]1CCN(c2nc(N)nc3c2sc2ccc(Cl)cc23)C1,Ki,Histamine H4 receptor [1],10 nM
CN[C@H]1CCN(c2nc(N)nc3c2sc2ccc(Br)cc23)C1,Ki,Histamine H4 receptor [1],65 nM
NC[C@H]1CCN(c2nc(N)nc3c2oc2ccc(Cl)cc23)C1,Ki,Histamine H4 receptor [1],137 nM
Nc1nc(N2CCC[C@H](N)C2)c2oc3ccc(Cl)cc3c2n1,Ki,Histamine H4 receptor [1],5.7 nM
Nc1nc(N2CC[C@@H](NCCO)C2)c2oc3ccc(Cl)cc3c2n1,Ki,Histamine H4 receptor [1],46 nM
CN1CCN(c2nc(N)nc3c2sc2ccc(Cl)cc23)CC1,Ki,Histamine H4 receptor [1],0.3 nM
CN1CCCN(c2nc(N)nc3c2oc2ncc(Cl)cc23)CC1,Ki,Histamine H4 receptor [1],37 nM
Nc1nc(N2C[C@H]3CCCN[C@H]3C2)c2oc3ccc(Cl)cc3c2n1,Ki,Histamine H4 receptor [1],4.7 nM
